Calls of active or inactive are those of the source. The calls are words filed in the database; no cut-off is given here.
Legend:
[1] = test system: Rattus norvegicus; assay: Antiinflammatory activity in rat assessed as inhibition of carrageenan-induced paw edema at 250 mg/kg administered via gavage relative to control; type: functional
[2] = test system: Rattus norvegicus; assay: Antiinflammatory activity in rat adjuvant-induced arthritis model assessed as mean surface area of paw at 50 mg/kg/day administered via gavage relative to control; type: functional
[3] = test system: Rattus norvegicus; assay: Antiinflammatory activity in rat adjuvant-induced arthritis model assessed as mean surface area of paw at 250 mg/kg administered via gavage relative to control; type: functional, organism-based; parameters: dose 250 mg/kg
[4] = test system: Rattus norvegicus; assay: Antiinflammatory activity in rat adjuvant-induced arthritis model assessed as mean surface area of paw at 400 mg/kg/day administered via gavage relative to control; type: functional
[5] = test system: Rattus norvegicus; assay: Antiinflammatory activity in rat assessed as inhibition of carrageenan-induced paw edema at 50 mg/kg administered via gavage relative to control; type: functional

Work on Clc1ccc(-c2nncnn2)cc1 yielded a C/T [1] of 3.07 and a Ratio [2] of 0.54.

Fc1ccc(-c2nncnn2)cc1 gave a C/T [1] of 2.8 and a Ratio [2] of 0.46.

Fc1ccc(-c2nccnn2)cc1 was tested, and the C/T [1] was 2.67 and the Activity [3] was “inactive”.

For CC(=O)Oc1ccccc1C(=O)O [ASPIRIN], the Ratio [4] was 0.55 and the C/T [5] was 2.8.

In the case of Clc1ccc(-c2nccnn2)cc1, the C/T [1] is reported as 2.25 and the Activity [3] is reported as “inactive”.

From ChEMBL document CHEMBL3243933, “3-Aryl-as-triazines as potential antiinflammatory agents” (1977)
